Experimental data from patent US20250034135A1, “ANTI-APOPTOTIC PROTEIN BCL-2 INHIBITOR, PHARMACEUTICAL COMPOSITION AND USES THEREOF” (HANGZHOU HEALZEN THERAPEUTICS CO., LTD., priority 2021, published 2025).

Each compound was assayed against BCL2 (Homo sapiens (Human), UniProt P10415) (assay: Molecular level activity test of anti-apoptotic protein BCL2 (HTRF, binding to Bim peptide)). Conditions: HTRF, binding of BCL2 to Bim peptide; read-out: BCL2 nM (inhibitory activity, IC50).
In short: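 Signal comes from proximity of anti-His-labelled BCL2 and streptavidin-XL665-bound biotin-BIM peptide. Test compounds, added in 2% DMSO, were preincubated with protein and peptide for one hour; detection reagents then incubated four hours at room temperature before reading.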

BCL2, sequence (P10415 whole entry): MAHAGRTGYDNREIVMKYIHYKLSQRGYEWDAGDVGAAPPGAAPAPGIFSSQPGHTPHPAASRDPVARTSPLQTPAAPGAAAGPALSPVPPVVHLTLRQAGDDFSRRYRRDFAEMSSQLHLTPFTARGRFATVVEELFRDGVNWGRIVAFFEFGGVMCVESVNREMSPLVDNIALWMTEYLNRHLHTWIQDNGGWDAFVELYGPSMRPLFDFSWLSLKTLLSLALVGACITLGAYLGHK

IC50, < 10 nM:
CC(C)c1ccccc1[C@@H]1CN(Cc2ccc(C3CC3)cc2)CCN1C1CC2(CCN(c3cc(Oc4cnc5[nH]ccc5c4)c(C(=O)NS(=O)(=O)c4ccc(NC[C@H]5CC[C@](C)(O)CC5)c([N+](=O)[O-])c4)cc3F)CC2)C1 [compound 219, 2-((1H-pyrrolo[2,3-b]pyrid-5-yl)oxy)-4-(2-((R)-4-(4-cyclopropylbenzyl)-2-(2-isopropylphenyl)piperazin-1-yl)-7-azaspiro[3.5]non-7-yl)-5-fluoro-N-((4-((((1r, 4r)-4-hydroxy-4-methylcyclohexyl)methyl)amino)-3-nitrophenyl)sulfonyl)benzamide]
COc1cc(CN2CCN(C3CC4(CCN(c5cc(Oc6cnc7[nH]ccc7c6)c(C(=O)NS(=O)(=O)c6ccc(NC[C@H]7CC[C@](C)(O)CC7)c([N+](=O)[O-])c6)cc5F)CC4)C3)[C@H](c3ccccc3C(C)C)C2)ccc1C1CC1 [compound 220, 2-((1H-pyrrolo[2,3-b]pyrid-5-yl)oxy)-4-(2-((R)-4-(4-cyclopropyl-3-methoxybenzyl)-2-(2-isopropylphenyl)piperazin-1-yl)-7-azaspiro[3.5]non-7-yl)-5-fluoro-N-((4-((((1r, 4r)-4-hydroxy-4-methylcyclohexyl)methyl)amino)-3-nitrophenyl)sulfonyl)benzamide]
COc1ccc(CN2CCN(C3CC4(CCN(c5cc(Oc6cnc7[nH]ccc7c6)c(C(=O)NS(=O)(=O)c6ccc(NC[C@H]7CC[C@](C)(O)CC7)c([N+](=O)[O-])c6)cc5F)CC4)C3)[C@H](c3ccccc3C(C)C)C2)cc1OC [compound 221, 2-((1H-pyrrolo[2,3-b]pyrid-5-yl)oxy)-4-(2-((R)-4-(3,4-dimethoxybenzyl)-2-(2-isopropylphenyl)piperazin-1-yl)-7-azaspiro[3.5]non-7-yl)-5-fluoro-N-((4-((((1r, 4r)-4-hydroxy-4-methylcyclohexyl)methyl)amino)-3-nitrophenyl)sulfonyl)benzamide]
COc1ccc(CN2CCN(C3CC4(CCN(c5cc(Oc6cnc7[nH]ccc7c6)c(C(=O)NS(=O)(=O)c6ccc(NC[C@H]7CC[C@](C)(O)CC7)c([N+](=O)[O-])c6)cc5F)CC4)C3)[C@H](c3ccccc3C(C)C)C2)c2c1OCO2 [compound 223, 2-((1H-pyrrolo[2,3-b]pyrid-5-yl)oxy)-5-fluoro-N-((4-((((1r, 4r)-4-hydroxy-4-methylcyclohexyl)methyl)amino)-3-nitrophenyl)sulfonyl)-4-(2-((R)-2-(2-isopropylphenyl)-4-((7-methoxybenzo[d][1,3]dioxycyclopent-4-yl)methyl)piperazin-1-yl)-7-azaspiro[3.5]non-7-yl)benzamide]
COc1cc(CN2CCN(C3CC4(CCN(c5cc(Oc6cnc7[nH]ccc7c6)c(C(=O)NS(=O)(=O)c6ccc(NC[C@H]7CC[C@](C)(O)CC7)c([N+](=O)[O-])c6)cc5F)CC4)C3)[C@H](c3ccccc3C(C)C)C2)cc2cc(C)oc12 [compound 225, 2-((1H-pyrrolo[2,3-b]pyrid-5-yl)oxy)-5-fluoro-N-((4-((((1r, 4r)-4-hydroxy-4-methylcyclohexyl)methyl)amino)-3-nitrophenyl)sulfonyl)-4-(2-((R)-2-(2-isopropylphenyl)-4-((7-methoxy-2-methylbenzofuran-5-yl)methyl)piperazin-1-yl)-7-azaspiro[3.5]non-7-yl)benzamide]
COc1ccc(CN2CCN(C3CC4(CCN(c5cc(Oc6cnc7[nH]ccc7c6)c(C(=O)NS(=O)(=O)c6ccc(NC[C@H]7CC[C@](C)(O)CC7)c([N+](=O)[O-])c6)cc5F)CC4)C3)[C@H](c3ccccc3C(C)C)C2)c2c1OCCO2 [compound 228, 2-((1H-pyrrolo[2,3-b]pyrid-5-yl)oxy)-5-fluoro-N-((4-((((1r, 4r)-4-hydroxy-4-methylcyclohexyl)methyl)amino)-3-nitrophenyl)sulfonyl)-4-(2-((R)-2-(2-isopropylphenyl)-4-((8-methoxy-2,3-dihydrobenzo[b][1,4]dioxan-5-yl)methyl)piperazin-1-yl)-7-azaspiro[3.5]non-7-yl)benzamide]
CC(C)c1ccccc1[C@@H]1CN(Cc2cnn(C)c2)CCN1C1CC2(CCN(c3cc(Oc4cnc5[nH]ccc5c4)c(C(=O)NS(=O)(=O)c4ccc(NC[C@H]5CC[C@](C)(O)CC5)c([N+](=O)[O-])c4)cc3F)CC2)C1 [compound 229, 2-((1H-pyrrolo[2,3-b]pyrid-5-yl)oxy)-5-fluoro-N-((4-((((1r, 4r)-4-hydroxy-4-methylcyclohexyl)methyl)amino)-3-nitrophenyl)sulfonyl)-4-(2-((R)-2-(2-isopropylphenyl)-4-((1-methyl-1H-pyrazole-4-yl)methyl)piperazin-1-yl)-7-azaspiro[3.5]non-7-yl)benzamide]
CC(C)c1ccccc1[C@@H]1CN(Cc2cnn(C(C)C)c2)CCN1C1CC2(CCN(c3cc(Oc4cnc5[nH]ccc5c4)c(C(=O)NS(=O)(=O)c4ccc(NC[C@H]5CC[C@](C)(O)CC5)c([N+](=O)[O-])c4)cc3F)CC2)C1 [compound 230, 2-((1H-pyrrolo[2,3-b]pyrid-5-yl)oxy)-5-fluoro-N-((4-((((1r, 4r)-4-hydroxy-4-methylcyclohexyl)methyl)amino)-3-nitrophenyl)sulfonyl)-4-(2-((R)-4-((1-isopropyl-1H-pyrazole-4-yl)methyl)-2-(2-isopropylphenyl)piperazin-1-yl)-7-azaspiro[3.5]non-7-yl)benzamide]
CC(C)c1ccccc1[C@@H]1CN(Cc2ccncc2)CCN1C1CC2(CCN(c3cc(Oc4cnc5[nH]ccc5c4)c(C(=O)NS(=O)(=O)c4ccc(NC[C@H]5CC[C@](C)(O)CC5)c([N+](=O)[O-])c4)cc3F)CC2)C1 [compound 231, 2-((1H-pyrrolo[2,3-b]pyrid-5-yl)oxy)-5-fluoro-N-((4-((((1r, 4r)-4-hydroxy-4-methylcyclohexyl)methyl)amino)-3-nitrophenyl)sulfonyl)-4-(2-((R)-2-(2-isopropylphenyl)-4-(pyrid-4-ylmethyl)piperazin-1-yl)-7-azaspiro[3.5]non-7-yl)benzamide]
CC(C)c1ccccc1[C@@H]1CN(Cc2cccnc2)CCN1C1CC2(CCN(c3cc(Oc4cnc5[nH]ccc5c4)c(C(=O)NS(=O)(=O)c4ccc(NC[C@H]5CC[C@](C)(O)CC5)c([N+](=O)[O-])c4)cc3F)CC2)C1 [compound 232, 2-((1H-pyrrolo[2,3-b]pyrid-5-yl)oxy)-5-fluoro-N-((4-((((1r, 4r)-4-hydroxy-4-methylcyclohexyl)methyl)amino)-3-nitrophenyl)sulfonyl)-4-(2-((R)-2-(2-isopropylphenyl)-4-(pyrid-3-ylmethyl)piperazin-1-yl)-7-azaspiro[3.5]non-7-yl)benzamide]
CC(C)c1ccccc1[C@@H]1CN(Cc2ccccn2)CCN1C1CC2(CCN(c3cc(Oc4cnc5[nH]ccc5c4)c(C(=O)NS(=O)(=O)c4ccc(NC[C@H]5CC[C@](C)(O)CC5)c([N+](=O)[O-])c4)cc3F)CC2)C1 [compound 233, 2-((1H-pyrrolo[2,3-b]pyrid-5-yl)oxy)-5-fluoro-N-((4-((((1r, 4r)-4-hydroxy-4-methylcyclohexyl)methyl)amino)-3-nitrophenyl)sulfonyl)-4-(2-((R)-2-(2-isopropylphenyl)-4-(pyrid-2-ylmethyl)piperazin-1-yl)-7-azaspiro[3.5]non-7-yl)benzamide]
